Experiment [1] has as its target T1, A1 receptor (Mesocricetus auratus, UniProt A0A1U8BVR4).
T1 construct: endogenous in cells; host or cells: DDT1 (DDT1 MF-2) hamster vas deferens smooth muscle cells
T1 sequence (A0A1U8BVR4 1-326): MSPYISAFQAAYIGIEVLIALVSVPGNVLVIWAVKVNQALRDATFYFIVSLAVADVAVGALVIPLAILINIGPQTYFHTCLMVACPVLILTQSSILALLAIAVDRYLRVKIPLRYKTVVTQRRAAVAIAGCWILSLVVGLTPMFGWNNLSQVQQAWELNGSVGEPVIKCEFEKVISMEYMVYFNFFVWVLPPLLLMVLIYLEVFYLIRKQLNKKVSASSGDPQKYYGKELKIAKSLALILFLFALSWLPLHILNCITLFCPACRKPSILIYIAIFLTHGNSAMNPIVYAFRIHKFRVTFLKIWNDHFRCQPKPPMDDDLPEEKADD
The experiment can be described thus: Competitive binding assay, DDT1 cell membranes, [3H]CCPA. The conditions noted are these: [3H]CCPA 2 nM, DDT1 cell membranes; read-out: Ki-DDT1 cell membrane. Also on record: species or system hamster. The protocol: Cells were subcultured twice weekly by dispersion in Hank's Balanced Salt Solution (HBSS) without the divalent cations and containing 1 mM EDTA. The cells were then seeded in growth medium at a density of 1.2×10^5 cells per plate and experiments were performed 4 days later at approximately one day preconfluence.
(§1) Attached cells were washed twice with HBSS (2×10 ml), scraped free of the plate with the aid of a rubber policeman in 5 ml of 50 mM Tris-HCI buffer pH 7.4 at 4° C. and the suspension homogenized for 10 s. The suspension was then centrifuged at 27,000×g for 10 min. The pellet was resuspended in homogenization buffer by vortexing and centrifuged as described above. The final pellet was resuspended in 1 vol of 50 mM Tris-HCI buffer pH 7.4 containing 5 mM MgCl2 for A1 AdoR assays. For the [^35S]GTPγS binding assay the final pellet was resuspended in 50 mM Tris-HCI pH 7.4 containing 5 mM MgCl2, 100 mM NaCl and 1 mM dithiothreitol. This membrane suspension was then placed in liquid nitrogen for 10 min, thawed and used for assays.
Competitive Binding Assay Pig striatum were prepared by homogenation in 50 mM Tris buffer (5× volume of tissue mass pH=7.4). After centrifilgation at 19,000 rpm for 25 minutes at 4° C., the supernatant was discarded, and the process was repeated twice. Compositions of this invention were assayed to determine their affinity for the A1 receptor in a pig striatum membrane prep or a DDT, membrane prep. Briefly, 0.2 mg of pig striatal membranes or DDT, cell membranes were treated with adenosine deaminase and 50 mM Tris buffer (pH=7.4) followed by mixing. To the pig membranes was added 2 μL of serially diluted DMSO stock solution of the compounds of this invention at concentrations ranging from 100 microM to 10 nM. The control received 2 microL of DMSO alone, then the antagonist [^3H] 8-cyclopentylxanthine (CPX) for pig striatum or the agonist [^3H] 2-chloro-6-cyclopentyladenosine (CCPA) for DDT, membranes in Tris buffer (50 mnM, pH of 7.4) was added to achieve a final concentration of 2 nM. After incubation at 23 C for 2 h, the solutions were filtered using a membrane harvester using multiple washing of the membranes (3×). The filter disks were counted in scintillation cocktail affording the amount of displacement of triated CPX or by the competitive binding compositions of this invention. In the case of the DDT1 cell membranes, some of the determinations of binding affinity (Ki) were made in the presence of Gpp(NH)p as noted in Table 1 (note: Gpp(NH)p shifts the receptor to a low affinity form). Greater than a 5 point curve was used to generate Ki's and the number of experiments is indicated in the column marked in Table 1 below.

Experiment [2] deals with T2, A1 adenosine receptor (Mesocricetus auratus, UniProt A0A1U8BVR4).
T2 construct: endogenous in cells; host or cells: DDT1 (DDT1 MF-2) hamster vas deferens smooth muscle cells
T2 sequence (A0A1U8BVR4 1-326): T1 sequence (A0A1U8BVR4 1-326)
The experiment can be described thus: cAMP assay (SPA) in DDT1 cells, forskolin-induced cAMP. The conditions noted are these: normalized to full agonist CPA, 5 μM forskolin, 50 μM rolipram; for Emax: 10 min. Type of experiment: cell-based, hamster. The protocol:
A scintillation proximity assay (SPA) using rabbit antibodies directed at cAMP using an added tracer of adenosine 3′,5′-cyclic phosphoric acid 2′-O-succinyl-3-[^125I]iodotyrosine methyl ester and fluoromicrospheres containing anti-rabbit specific antibodies as described by Amersham Pharmacia Biotech (Biotrak cellular communication assays). Briefly, DDT1 cells were cultured in clear bottomed 96 well microtiter plates with opaque wells at concentrations between 10^4 to 10^6 cells per well in 40 μl of HBSS at 37° C. (5% CO2 and 95% humidity). The partial or full A1 agonists (5 μl) of this invention were incubated at various concentrations with the DDT1 cells in the presence of rolipram (50 μM), and 5 μM forskolin for 10 min at 37° C. The cells were immediately lysed by treatment 5 μl of 10% dodecyltrirnethylammonium bromide followed by shaking using rnicroplate shaker. After incubation of the plate for 5 minutes, an imnuunoreagent solution (150 μl containing equal volumes of tracer, antiserum, and SPA fluorospheres) was added to each well followed by sealing the plate. After 15-20 h at 23° C., the amount of bound [^125] cAM to the fluoromicrospheres was determined by counting in a microtitre plate scintillation counter for 2 minutes. Comparison of counts with standard curves generated for cAMP using a similar protocol afforded the cAMP present after cell lysis.
(Changes in cAMP serve as a functional read-out for many G protein-coupled receptors.)

Experiment [3] has as its target T2, A1 adenosine receptor. Kind of experiment: [35S]GTPγS binding assay, A1-agonist stimulated. The class given is biochemical, hamster. As to conditions: agonist stimulated [35S]GTPγS binding, CPA = 100%. The protocol:
as §1, with “for assays. The protein content was determined by the method of Bradford (1976) using bovine serum albumin as standard.” for “for assays.”
A1-agonist stimulated [^35S]GTPγS binding was determined by a modification of the method described by Giersckik et al. (1991) and Lorenzen et al. (1993). […] Nonspecific binding was determined by the addition of 10 μM GTPγS. […] Previous reports have shown that agonist stimulated [^35S]GTPγS binding was dependent on the presence of GDP (Gierschik et al., 1991; Lorenzen et al., 1993; Traynor & Nahorski, 1995). […] In saturation experiments, 0.5 nM [^35S]GTPγS was incubated with 0.5-1000 nM GTPγS. At the end of the incubation, each suspension was filtered and the retained radioactivity determined as described above.
(Binding of GTPγS marks nucleotide exchange on a G protein.)

SMILES strings stand for the structures.

Turning to `COC(=O)C1CCCC1NC(=O)OCC1OC(n2cnc3c(N[C@@H]4CCOC4)ncnc32)C(O)C1O` (stereo partly drawn) [Compound 34], the Ki (in general, the equilibrium dissociation constant of an inhibitor or competing ligand from its target) in experiment [1] amounted to 3460 nM. Moreover, the Emax (commonly the size of the effect at its maximum, as opposed to the concentration needed) in experiment [2] was -20%; in experiment [3], 17%.
Taken in the same sequence, the figures for `CCOC(=O)C1C2C=CC(C2)C1NC(=O)OCC1OC(n2cnc3c(N[C@@H]4CCOC4)ncnc32)C(O)C1O` (stereo partly drawn) [Compound 35, Ethyl 3-{[5-{6-[(3R)oxolan-3-yl)amiinolpurin-9-yl}(3S,2R,4R,5R)-3,4-dihydroxyoxolan-2-yl)methoxylcarbonylamino)(2S,3R)bicylo[2.2.]hept-5-ene2-carboxylate] were 1010 nM, -4% and 52%.
For `CCOC(=O)C1C2CCC(C2)C1NC(=O)OCC1OC(n2cnc3c(N[C@@H]4CCOC4)ncnc32)C(O)C1O` (stereo partly drawn) [Compound 36, Ethyl 3-{[5-{6-[(3R)oxolan-3-yl)aminolpurin-9-yl}(3S,2R,4R,5R)-3,4-dihydroxyoxolan-2-yl)methoxylcarbonylamino}(2S,3R)bicylo[2.2.1]heptane-2-carboxylate], in that order: 1520 nM, 10% and 41%.
Regarding `O=C(NC1CCCC1OCc1ccccc1)OCC1OC(n2cnc3c(N[C@@H]4CCOC4)ncnc32)C(O)C1O` (stereo partly drawn) [Compound 37], in experiment [1], the Ki came to 4240 nM. Moreover, the cAMP in experiment [2] was −6%. Also, in experiment [3], the GTPγS worked out at 30%.
As to `O=C(NC1CCC1)OCC1OC(n2cnc3c(N[C@@H]4CCOC4)ncnc32)C(O)C1O` (stereo partly drawn) [Compound 39, [(5-{6[((3R)oxolan-3-yl)amino}purin-9-yl}(3S,2R,4R,5R)3,4-dihydroxyoxolan-2-yl)methoxy]-N-cyclobutylcarboxaniide], the Ki in experiment [1] is 447 nM. Moreover, the Emax in experiment [2] was determined as 45%; in experiment [3], 67%.
Taken in the same sequence, the figures for `C=CCNC(=O)OC[C@H]1O[C@@H](n2cnc3c(N[C@@H]4CCOC4)ncnc32)[C@H](O)[C@@H]1O` [Compound 41, [(5-{6[((3R)oxolan-3-yl)amino]purin-9-yl}(3S, 2R, 4R, 5R)-3,4-dihydroxyoxolan-2-yl)methoxy]-N-prop2-enylcarboxamide] were 668 nM, 17% and 48%.
For `CCOC(=O)CCNC(=O)OCC1OC(n2cnc3c(N[C@@H]4CCOC4)ncnc32)C(O)C1O` (stereo partly drawn) [Compound 42], in that order: 3150 nM, 16% and 47%.
On to `COC(=O)CNC(=O)OCC1OC(n2cnc3c(N[C@@H]4CCOC4)ncnc32)C(O)C1O` (stereo partly drawn) [Compound 43], for which the Ki in experiment [1] stood at 1700 nM. The Emax in experiment [2] came to 28%; in experiment [3], 53%.
With `OC1C(COC(=S)NC2CCCC2OCc2ccccc2)OC(n2cnc3c(N[C@@H]4CCOC4)ncnc32)C1O` (stereo partly drawn) [Compound 56], the Ki in experiment [1] came to 1240 nM. In experiment [2], the cAMP was 43%. Further, in experiment [3], the GTPγS was 52%.
For the compound `O=C(N[C@H]1CCC[C@@H]1O)OC[C@H]1O[C@@H](n2cnc3c(N[C@@H]4CCOC4)ncnc32)[C@H](O)[C@@H]1O` [Compound 61, {(5-{6[((3R)oxolan-3-yl)amino]purin-9-yl}(3S,2R,4R,5R)-3,4dihydroxyoxolan-2-yl)methoxy]-N-((1S,2S)-2-hydroxycyclopentyl)carboxamide], the Ki in experiment [1] was 1570 nM. Also, the values for the Emax in experiment [2] and in experiment [3] were 53% and 59%, respectively.
`O=C(NC1CCCC1O)OCC1OC(n2cnc3c(N[C@@H]4CCOC4)ncnc32)C(O)C1O` (stereo partly drawn) [Compound 62]: the Ki in experiment [1] stood at 2190 nM. For the same compound, the Emax turned out to be 23% in experiment [2] and 42% in experiment [3].
Taken in the same sequence, the figures for `O=C(NC1CCCC1)OCC1OC(n2cnc3c(NC4CCOC4)nc(Cl)nc32)C(O)C1O` [Compound 69, [(5-16-[((3R)oxolan-3-yl)amino]-2-chloropurin-9-yl}(3S,2R,4R,5R)-3,4-dihydroxyoxolan-2-yl)methoxy]-N-cyclopentylcarboxamide] were 380 nM, 18% and 50%.
Regarding `OC1C(CNC(=S)OC2CCCC2)OC(n2cnc3c(N[C@@H]4CCOC4)ncnc32)C1O` (stereo partly drawn) [Compound 72, 2-{6-[((3R)oxolan-3-yl)amino]purin-9-yll(4S,2R,3R,5R)5-{[cyclopentyloxythioxomethyl)amino]methyl}oxolane3,4-diol], the results for the Emax in experiment [2] and in experiment [3] were 103% and 93%, respectively.
Taken in the same sequence, the figures for `CNC(=S)SCC1OC(n2cnc3c(NC4CCOC4)ncnc32)C(O)C1O` [Compound 74, 2-{6[((3R)oxolan-3-yl)ainio]purin-9yl}(4S,5S,2R,3R)5-{[(methylamniio)thioxomethylthio]methyl}oxolane3,4diol] were 82% and 95%.
On to `O=c1occn1CC1OC(n2cnc3c(N[C@@H]4CCOC4)ncnc32)C(O)C1O` (stereo partly drawn) [Compound 80], for which the Emax in experiment [2] amounted to 64%; in experiment [3] it was 80%.

These data come from patent publication US20020037872A1, “N6 heterocyclic 5' modified adenosine derivatives” (CV Therapeutics, Inc., priority 1999, published 2002).
